Measurements from patent publication US20120035265A1, “COMPOSITIONS, METHODS, AND DEVICES FOR THE TREATMENT OF DYSMENORRHEA” (MediciNova, Inc., priority 2010, published 2012).

Experiments:
[1] = system: women with severe primary dysmenorrhea; experiment: Transdermal administration of MN-221 in women with severe primary dysmenorrhea (double-blind cross-over trial); assay type: in vivo, human
Method: The study is conducted in women, aged 15-39 years. Some of them are nulliparous and some are parous. All have regular 25-32 day cycles. They have all suffered from severe dysmenorrhea for more than one year. All the women are incapacitated for 1-2 days every month. During the first menstrual day they have continuous low abdominal pain of varying severity and in some women it is accompanied by nausea and vomiting.
All the women are informed and give their consent before the trial is started. The study is performed as a double-blind cross-over trial in which the patients are given, in random order, MN-221 transdermal patches during one menstrual period and placebo patches of identical appearance during the next period. The patients return to the hospital after the end of each menstrual flow and their dysmenorrheic symptoms are assessed. The therapeutic effect is also assessed and graded as none, weak, and moderate, over to good and very good. All women in the study have signs of ovulation—mid-cycle temperature rise—in the menstrual cycle preceding the trial. The MN-221 or the placebo is given as a five day transdermal patch during menstrual pains. MN-221 is administered as a dose in a range of about 0.02 mg/kg to 1.5 mg/Kg. The volume of the menstrual blood loss is calculated from the hemoglobin content of all the sanitary towels used by the patient and delivered to the department.

[2] = system: uterine muscle isolated from pregnant rats; experiment: Interaction of MN-221 and β-adrenoceptor antagonists on spontaneous contraction of uterine muscle isolated from pregnant rats (Schild regression); assay type: cell-based, rat; conditions: Rattus norvegicus
Method: The experimental operation of this study was as reported by T. Kawarabayashi et al.^4. After each SD-strain rat on Day 21 of pregnancy was exsanguinated to death, the uterus was isolated to prepare 8 myometrial samples (about 4 mm×10 mm) in the direction of the longitudinal muscle, with the adhesion to the placenta being avoided. Each myometrial sample was suspended with a load of about 1.0 g in an organ bath containing 10 mL of the Locke-Ringer solution at 37° C. […] After the suspended samples became stable for the amplitude and frequency of spontaneous contraction, each antagonist or distilled water was added to the bath to pretreat them for about 15 minutes. […] The contractile force of each sample was outputted through a force displacement transducer to a strain pressure amplifier and recorded with a rectigraph.
Any variable point (peak) with amplitude (tension) of 0.2 g or lower was excluded from analysis. Samples meeting any of the following criteria were rejected or removed from analysis.
Microsoft® Excel 2000 (Microsoft Corp.) was used for summing up or calculating data and preparing figures and tables. […] This EC50 value was used to calculate the concentration ratio (CR) of EC50 when an antagonist was added (for each sample) to that when no antagonist was added (mean value of the whole control group) and the logarithmic value of CR-1 (log [CR-1]).
Then, the added concentration of the antagonist was plotted on the X axis (logarithmic value) and log(CR-1) on the Y axis (Schild plot) to calculate the value of the X-axis intercept (pA2) and slope of the line using linear approximation (Schild regression^5). The slope was statistically compared with a slope of 1 (paired t-test; a probability level of less than 5% was considered significant). […] The mean and standard error were calculated for each data point obtained and indicated to two decimal places (or in 3 significant digit).

[3] = system: uterine muscle isolated from pregnant rats; experiment: Oxytocin-induced contraction of uterine muscle isolated from pregnant rats; assay type: cell-based, rat; conditions: Rattus norvegicus, contraction induced with 1 mU/mL of oxytocin, mean ± standard error of 10 samples
Method: After SD-strain rats on Day 17 of pregnancy were exsanguinated to death, the uterus was isolated to prepare up to 8 myometrial strips (about 4 mm×10 mm) per animal in the direction of the longitudinal muscle while avoiding the adhesion to the placenta. Each strip was suspended in an organ bath containing 10 mL of a modified Locke-Ringer solution at […] (aerated with 95% O2+5% CO2 gas) with a load of about 1.0 g. After the suspended sample became stable for static tension, 5 μg/mL of PG F2α or 1 mU/mL of oxytocin was added to induce contraction. After the sample was allowed to stand for at least 30 minutes to confirm stable rhythmic contraction for frequency and amplitude, the test, control, or positive control substance solution was added cumulatively at intervals of 5 minutes. After the treatment was completed, 1×10^−5 mol/L of forskolin was added to obtain maximal relaxation. The contractile force of the uterine sample was delivered via a force displacement transducer to a strain pressure amplifier and recorded on a Rectigraph.
Considering the sum of the uterine contraction for 5 minutes before treatment as 100%, the response rate to each concentration of the test, control, or positive control substance solution was calculated from the sum of uterine contraction after treatment for both PG F2α and oxytocin induced contraction. Then, the response rates obtained were used to prepare a concentration-response curve for each sample. The maximum relaxation obtained by adding forskolin was considered as a baseline. Variable points (peaks) with amplitude (tension) of […] or lower were excluded from analysis. Samples showing any of the following events were not used for the study or excluded from analysis.
Microsoft® Excel 2000 (Microsoft Corp.) was used to sum up and calculate data and prepare tables and figures. Using a concentration-response curve prepared for each sample (X axis: log value of the concentration of the substance added, Y axis: response rate), a negative log value (pEC50) of the concentration that inhibited the uterine contraction by 50% (EC50) was calculated from a straight line connecting the 2 concentrations just above and below 50%, and then converted to EC50 (unit: mol/L).

[4] = system: uterine muscles isolated from pregnant rabbits; experiment: Oxytocin-induced contractions of isolated uterine muscles of pregnant rabbits (organ bath); assay type: cell-based, rabbit
Method: Uterine muscles of pregnant rabbits were isolated, and experiments were conducted based on organ-bath method. After specimens of uterine muscles were suspended and oxytocin (1 mU/mL)-induced contractions was stabilized, the test substance, control substance or positive control substance was administered every 10 min, while doses were increased gradually. Efficacy of drugs was evaluated by comparing the sum of uterine contraction for 10 min before and after administration of drugs, defining the former as 100%.

## CN(C)C(=O)COc1ccc2c(c1)C[C@@H](NC[C@H](O)c1ccc(O)c(CCO)c1)CC2 [MN-221, (−)-bis(2-{[(2S)-2-({(2R)-2-hydroxy-2-[4-hydroxy-3-(2-hydroxyethyl)phenyl]ethyl}amino)-1,2,3,4-tetrahydronaphthalen-7-yl]oxy}-N,N-dimethyl-acetamide) monosulfate]
[1]; five day transdermal patch, about 0.02 mg/kg to 1.5 mg/Kg
  therapeutic response (relief) compared to placebo: positive response with relief in women as compared to placebo
[1]; transdermal patch, all subjects
  increase in heart rate, blood pressure, palpitations, tremors, and/or flushes: substantially no increase in heart rate, blood pressure, palpitations, tremors, and/or flushes
[2]; MN-221, control group (treated with distilled water), read-out: EC50
  EC50: 0.843 ± 0.221 nM
[2]; MN-221, control group (treated with distilled water), read-out: pD2 (converted)
  EC50: 0.676 nM
[2]; MN-221 after pretreatment with CGP 20712A 1 × 10^−8 mol/L, read-out: EC50
  EC50: 0.868 ± 0.15 nM
[2]; MN-221 after pretreatment with CGP 20712A 1 × 10^−8 mol/L, read-out: pD2 (converted)
  EC50: 0.692 nM
[2]; MN-221 after pretreatment with CGP 20712A 1 × 10^−9 mol/L, read-out: EC50
  EC50: 1.25 ± 0.148 nM
[2]; MN-221 after pretreatment with CGP 20712A 1 × 10^−9 mol/L, read-out: pD2 (converted)
  EC50: 1.15 nM
[2]; MN-221 after pretreatment with CGP 20712A 3 × 10^−9 mol/L, read-out: EC50
  EC50: 1.05 ± 0.278 nM
[2]; MN-221 after pretreatment with CGP 20712A 3 × 10^−9 mol/L, read-out: pD2 (converted)
  EC50: 0.692 nM
[2]; MN-221 after pretreatment with ICI 118,551 1 × 10^−8 mol/L, read-out: EC50
  EC50: 23.1 ± 6.39 nM
[2]; MN-221 after pretreatment with ICI 118,551 1 × 10^−8 mol/L, read-out: pD2 (converted)
  EC50: 16.6 nM
[2]; MN-221 after pretreatment with ICI 118,551 3 × 10^−8 mol/L, read-out: EC50
  EC50: 50.9 ± 12.7 nM
[2]; MN-221 after pretreatment with ICI 118,551 3 × 10^−8 mol/L, read-out: pD2 (converted)
  EC50: 28.8 nM
[2]; MN-221 after pretreatment with ICI 118,551 3 × 10^−9 mol/L, read-out: EC50
  EC50: 4.6 ± 1.26 nM
[2]; MN-221 after pretreatment with ICI 118,551 3 × 10^−9 mol/L, read-out: pD2 (converted)
  EC50: 2.95 nM
[2]; MN-221 after pretreatment with SR 59230A 1 × 10^−8 mol/L, read-out: EC50
  EC50: 1.54 ± 1.08 nM
[2]; MN-221 after pretreatment with SR 59230A 1 × 10^−8 mol/L, read-out: pD2 (converted)
  EC50: 0.447 nM
[2]; MN-221 after pretreatment with SR 59230A 3 × 10^−8 mol/L, read-out: EC50
  EC50: 1.79 ± 0.499 nM
[2]; MN-221 after pretreatment with SR 59230A 3 × 10^−8 mol/L, read-out: pD2 (converted)
  EC50: 1.07 nM
[2]; MN-221 after pretreatment with SR 59230A 3 × 10^−9 mol/L, read-out: EC50
  EC50: 1.24 ± 0.338 nM
[2]; MN-221 after pretreatment with SR 59230A 3 × 10^−9 mol/L, read-out: pD2 (converted)
  EC50: 0.955 nM
[3]; read-out: EC50
  EC50: 2.25 ± 0.44 nM
[3]; read-out: pEC50 (converted)
  EC50: 1.86 nM
[4]; Oryctolagus cuniculus, oxytocin (1 mU/mL)-induced contractions, pregnant rabbit uterine muscles, read-out: pD2 values (converted)
  EC50: 2.51 nM
[4]; oxytocin (1 mU/mL)
  inhibitory effect against oxytocin-induced contractions of isolated uterine muscles: demonstrated inhibitory effect
[4]; pregnant rabbit uterine muscles
  inhibitory effect against oxytocin-induced contractions of uterine muscles, comparison: clearly stronger than that of HSR-81, ritodrine and terbutaline
